Source: patent publication US9133154B2, “Substituted 3-phenylpropylamine derivatives for the treatment of ophthalmic diseases and disorders” (Acucela Inc., priority 2013, dated 2015)
Several values for one entry are separate records, joined by “and”; a condition that tells them apart may be missing. Identical values can stand only once. Entries after “also recorded” stand apart in the source; their conditions may differ.

What was measured:
[1] = system: retinal isomerase activity (recovery of 11-cis-retinal); assay: Comparative in vivo murine isomerase assay, dose response; parameters: species or system BALB/c mice; conditions: for Avg. % Inhibition: 11-cis-retinal, drug vs. recovery control, listed as cmpd A
Experimental: All test compounds were stored at room temperature, dessicated.
On the day prior to dose administration compound A and compound D were weighed into new empty glass vials. The compounds were dissolved in di-water at the concentration of 0.833 mg/mL compound A and 0.892 mg/mL compound D, serially diluted into various concentrations, and stored overnight at 4° C.
56 Male BALB/c mice (Charles River Laboratories) were used for this study. The mice were approximately 8 weeks at the initiation of dosing with an average body weight of 24 grams.
The day prior to dose administration 56 BALB/c mice were placed into a dark room and dark adapted for a minimum of 12 hours prior to dose administration. The mice were maintained in the dark for the duration of the study.
Each animal was removed from its cage and dosed accordingly to the study design in Table 4 (see below). Each animal was administered 0.1 mL of the appropriate compound or vehicle via oral gavage using a 1 mL syringe fitted with a 23 gauge oral gavage needle. Two hours following dose administration, animals were removed from the dark and exposed to 5000 Lux white light for 10 minutes to photobleach their eyes. Following the completion of the photobleach the animals were returned to the dark for 2 hours to allow for the regeneration of 11-cis-retinal in the eyes. Two hours after photobleaching each animal was euthanized with carbon dioxide followed by cervical dislocation, in the dark under red light. The light control group was euthanized immediately following photobleaching. Immediately following the cervical dislocation both eyes of each animal were removed and transferred into separate tubes, flash frozen in liquid nitrogen and stored in the dark at −80° C. until processing and analysis.
(§1) All sample processing procedures were performed in the dark under red light.
Extracted samples were analyzed using an Agilent 1100 HPLC system according to the procedure outlined in Table 6 (see below)
HPLC analysis of the eyes measures the peak area units of the 110cis-Ral-Oxime_syn. Signal.
Data analysis % inhibition (drug vs. recovery control). % control (drug vs. light control), and One-way ANOVA (followed by Tukey's Multiple Comparison) were performed using peak area units and performed by Prism software. Data are represented as mean and standard deviation.

[2] = system: accumulation of A2E in the eyes; assay: A2E accumulation model; format: in vivo, abca4−/−, RPE65 Leu450Leu mice; conditions: for Day 91 A2E Concentration, individual animals: 91 days, left eye, animals 1-8, listed as Test cmpd
Experimental: The purpose of this study was to assess the ability of test compounds to inhibit the accumulation of A2E in the eyes of abca4^−/−, RPE65 Leu450Leu mice (ABCR) following 91 days of continuous dosing.
The test compound (R)-3-amino-1-(3-((tetrahydro-2H-pyran-4-yl)methoxy)phenyl)-propan-1-ol (Example 1) was stored in a freezer set to maintain at approximately −20° C.
On the day prior to dosing and once weekly for 13 weeks the test articles were weighed into new empty glass scintillation vials. The compound was dissolved in ethanol (10% of final volume) and then diluted with deionized water (90% of total final volume) resulting in a concentrations of 0.2 mg/mL. This dosing solution was administered to the high dose groups (1 mg/kg). For the low dose groups (0.1 mg/kg) a […] dosing solution was prepared by diluting with vehicle (10% ethanol 90% water) to the appropriate concentration. The dosing solutions were stored in a refrigerator set to maintain between 2 to 8° C. and used for dose administration once per day for one week. The vehicle used for dosing control groups was 10% ethanol 90% deionized water.
Male and female abca4^−/−, and RPE65 Leu450Leu, mice (Charles River Laboratories) were used for this study. The mice were approximately 8-12 week old at the initiation of dosing with a starting average body weight of 19 grams for females and 27 grams for males.
Group 1 animals (Time zero for A2E accumulation) were euthanized with carbon dioxide followed by cervical dislocation on the first day of dosing. Immediately following the cervical dislocation both eyes of the animal was removed and transferred into separate tubes, flash frozen in liquid nitrogen and stored in the dark at −80° C. until processing and analysis.
The remaining groups (2-4) were dosed once each day for 13 weeks. When dosed each animal was administered a 5 mL/kg dose of the appropriate test compound or vehicle via oral gavage using a 1 mL syringe fitted with a 20 gauge oral gavage needle. Upon the completion of the study, animals were euthanized with carbon dioxide followed by cervical dislocation. Immediately following the cervical dislocation both eyes of the animal was removed and transferred into separate tubes, flash frozen in liquid nitrogen and stored in the dark at −80° C. until processing and analysis for A2E concentration.
as §1
Extracted samples were analyzed using an Agilent 1100 HPLC system according to the procedure outlined in Table 21 (See Below)
HPLC analysis of the eyes looks at the peak area units of the A2E present in the eyes following extraction as described above.
Data analysis % inhibition (drug vs. recovery control), % control (drug vs. light control), and One-way ANOVA (followed by Tukey's Multiple Comparison) were performed using peak area units and performed by Prism software. Data are represented as mean and standard deviation.

[3] = system: isomerase (recovery of 11-cis-retinal after bleaching); assay: In vivo murine isomerase assay; conditions: mice, oral gavage
Experimental: The capability of compounds described herein to inhibit isomerase was determined by an in vivo murine isomerase assay. […] The recovery of 11-cis-retinal after bleaching can be used to estimate the activity of isomerase in vivo. Delayed recovery, as represented by lower 11-cis-retinal oxime levels, indicates inhibition of isomerization reaction.
Mice were gavaged with the test compound. […] The mice were allowed to recover 2 hours in the dark. The animals were then sacrificed by carbon dioxide inhalation. Retinoids were extracted from the eye and the regeneration of 11-cis-retinal was assessed at various time intervals.
After the mice were sacrificed, the eyes were immediately removed and placed in liquid nitrogen for storage.
The eyes were placed in 500 μL of bis-tris propane buffer (10 mM, pH˜7.3) and 20 μL of 0.8M hydroxile amine (pH˜7.3). The eyes were cut up into small pieces with small iris scissors and then thoroughly homogenized at 30000 rpm with a mechanical homogenizer (Polytron PT 1300 D) in the tube until no visible tissue remained. 500 μL of methanol and 500 μL of heptane were added to each tube. The tubes were attached to a vortexer so that the contents were mixed thoroughly for 15 minutes in room temperature. The organic phase was separated from the aqueous phase by centrifugation for 10 min at 13K rpm, 4° C. 240 μL of the solution from the top layer (organic phase) was removed and transferred to clean 300 μl glass inserts in HPLC vials using glass pipette and the vials were crimped shut tightly.
The samples were analyzed on an Agilent 1100 HPLC system with normal phase column: SILICA (Beckman Coutlier, dp 5 μm, 4.6 mM×250 mM). […] Loading volume for each sample was 100 μA detection wavelength was 360 nm. The area under the curve for 11-cis retinal oxime was calculated by Agilent Chemstation software and was recorded manually. Data processing was performed using Prizm software.
Positive control mice (no compound administered) were sacrificed fully dark-adapted and the eye retinoids analyzed. Light (bleached) control mice (no compound administered) were sacrificed and retinoids isolated and analyzed immediately after light treatment.
A time course study was performed to determine the isomerase inhibitory activity of the test compound. […] The animals were then “photo-bleached” (5000 Lux white light for 10 minutes) at 2, 4, 8, 16 and 24 hours after dosing, and returned to darkness to allow recovery of the 11-cis-retinal content of the eyes. Mice were sacrificed 2 hours after bleaching, eyes were enucleated, and retinoid content is analyzed by HPLC.
Recovery control mice (vehicle-only treated) were light-treated and left to recover for 2 hours in the dark before sacrifice and analysis. Light control mice (vehicle only treated) were sacrificed for analysis immediately after photo-bleaching.
An in vivo dose response isomerase inhibition study was performed with test compound. […] Recovery and retinoid analysis were performed as described above. Dark control mice were vehicle-only treated, sacrificed fully dark adapted without light treatment, and analyzed. Recovery control mice and light control mice were included in the study as per the initial phase.

[4] = BALB/c mice, single oral dose, 2 hours

NCC[C@@H](O)c1cccc(OCC2CCOCC2)c1 [Example 1]
Avg. % Inhibition ([1]; BALB/c mice, oral 0.3 mg/kg, 2 hours, 0.3 mg/kg): 92.4%
Avg. % Inhibition ([1]; BALB/c mice, oral 0.5 mg/kg, 2 hours, 0.5 mg/kg): 99.3%
significance of inhibitory effect on the recovery of 11-cis-retinal vs. recovery control ([1]; BALB/c mice, single oral dose 0.03-3 mg/kg, 2 hours, listed as compound A): statistically significant difference, P<0.001 for 0.3, 0.5, 1 and 3 mg/kg dose levels; also recorded: significant inhibitory effect at 0.3 mg/kg, 0.5 mg/kg, 1 mg/kg and 3 mg/kg dose levels
IC50 (dose response experiment) [1, 4]: 0.17 mg/kg
dose at which 11-cis-retinal recovery was inhibited by 50% [1, 4]: 0.17 mg/kg
times more active than compound D ([1]; by IC50 of the dose response experiment): 3-4 ×
times more active than compound D ([1]; by dose showing nearly 100% inhibition (0.5 vs 3.0 mg/kg)): approximately 6 ×
times more active than compound D ([1]; by inhibition at a dose of 0.3 mg/kg): greater than 10 ×
Day 91 A2E Concentration, individual animals ([2]; 0.1 mg/kg oral once daily): 9.64 Pico Moles/eye and 8.97 Pico Moles/eye and 10.23 Pico Moles/eye and 8.42 Pico Moles/eye and 8.49 Pico Moles/eye and 9.6 Pico Moles/eye and 11.68 Pico Moles/eye and 10.27 Pico Moles/eye
Day 91 A2E Concentration, individual animals ([2]; 1.0 mg/kg oral once daily): 6.49 Pico Moles/eye and 7.68 Pico Moles/eye and 7.75 Pico Moles/eye and 8.87 Pico Moles/eye and 7.56 Pico Moles/eye and 8.01 Pico Moles/eye and 8.86 Pico Moles/eye and 9.49 Pico Moles/eye
effect on the accumulation of A2E ([2]; 91 days of oral dosing at 0.1 mg/kg and 1.0 mg/kg): statistically significant inhibitory effects on the accumulation of A2E
inhibition at 0.1 mg/kg ([2]; Mus musculus, 2184 h, 0.1 mg/kg daily oral administration for 91 days): 46.4%
inhibition at 1 mg/kg ([2]; Mus musculus, 2184 h, 1 mg/kg daily oral administration for 91 days): 65%
% Inhibition ([3]; dose 0.3 mg/kg, time 2 h): 40.2%
% Inhibition ([3]; dose 1 mg/kg, time 2 h): 96.7%
% Inhibition ([3]; dose 1 mg/kg, time 4 h): 92.8%
